Laboratory results as given in patent US20260070902A1, “SULFONYL DERIVATIVES AS CCR6 INHIBITORS” (Hoffmann-La Roche Inc., priority 2022, published 2026).

How the values were obtained:
human CCR6 [1] = target: T1, human CCR6 (Homo sapiens, UniProt P51684); experiment: CHO-K1 CCR6 chemotaxis assay towards CCL20; type: cell-based; settings: relative -Log IC50; CHO-K1 cells overexpressing human CCR6; migration towards 100 ng/ml CCL20; 4 h
T1 sequence (P51684 1-374): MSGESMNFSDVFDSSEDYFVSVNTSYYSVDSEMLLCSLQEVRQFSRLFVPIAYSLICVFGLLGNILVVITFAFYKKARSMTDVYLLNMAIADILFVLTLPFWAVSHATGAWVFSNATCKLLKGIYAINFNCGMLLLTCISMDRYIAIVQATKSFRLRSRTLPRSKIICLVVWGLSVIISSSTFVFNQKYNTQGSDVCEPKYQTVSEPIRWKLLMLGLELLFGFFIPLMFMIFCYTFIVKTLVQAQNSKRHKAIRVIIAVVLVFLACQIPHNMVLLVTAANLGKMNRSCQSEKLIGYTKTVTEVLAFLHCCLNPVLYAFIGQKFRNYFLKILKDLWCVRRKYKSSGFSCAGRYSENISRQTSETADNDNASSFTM
Description: CHO-K1 CCR6 Chemotaxis Assay Towards CCL20
Cells overexpressing human CCR6 were used in the chemotaxis assay (DiscoverX, cAMP Hunter™ CHO-K1 CCR6 Gi Cell Line). Growth medium of these cells consisted of DMEM/F12, non-essential Amino acids (1×NEAA, Gibco 11140050), 10% FBS and 1× pen/strep (Gibco 15140). For the chemotaxis assay, Corning Transwell plates were used with a pore size of 8 m (Corning 351164). Cells were harvested using trypsin and diluted to 4*10^6 cells/ml in chemotaxis medium (DMEM, 0.25% BSA, pen/strep). Compounds were four-fold serially diluted in DMSO. Further dilutions were made in chemotaxis medium. Cells were incubated with test compounds for 30 min at 37° C. prior to initiation of the assay (2*10^6 cells/ml). Final DMSO concentration in the assay was 0.2%. Wells of the Transwell plates were filled with 200 μl chemotaxis medium containing 100 ng/ml CCL20 (R&D systems 360-MP). 50 μl of the cell/compound suspension was added to the inserts of the Transwell plates (100,000 cells/insert). The Transwell plates were placed in an incubator at 37° C., 5% CO2 for 4 h. After 4 h, the number of migrated cells was quantified using CellTiter Glo (Promega). Percentage inhibition values were calculated based on the low and high signal obtained with 0.2% DMSO in chemotaxis medium without and with CCL20, respectively. The relative −Log IC50 was determined with GraphPad Prism 9 using a four-parameter dose-response model.

human CCR6 [2] = target: T1, human CCR6; experiment: Human CCR6-CRE reporter assay; type: cell-based; set-up: The second construct contained the open reading frame of human CCR6 in the pUNO1 backbone; host or cells: 293FT cells; settings: relative -Log IC50; 293FT cells transfected with human CCR6 and CRE-luciferase reporter; 6 μM Forskolin, 6 nM CCL20; 5 h
Method in brief: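 293FT cells transiently co-transfected with human CCR6 and a CRE-luc2P reporter, used 48 h later. Compounds incubated with cells in medium containing 6 μM Forskolin and 6 nM CCL20 (assay-medium levels), 0.1% DMSO final, 5 h at 37° C; luminescence read, relative −Log IC50 from four-parameter fit.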

| IC50 (human CCR6 [1]) [nM] | IC50 (human CCR6 [2]) [nM] | SMILES |
| --- | --- | --- |
| 398 | 63.1 | CN(C)C(=O)c1cccc(-c2ccc(S(=O)(=O)[C@H]3CC[C@H](Nc4ccc(S(F)(F)(F)(F)F)cc4)CC3)cc2)c1 [Example 19, N,N-dimethyl-4′-{[trans-4-{[4-(pentafluoro-λ^6-sulfanyl)phenyl]Amino}cyclohexyl]sulfonyl}-[1,1′-biphenyl]-3-carboxamide] |
| 12.6 | 31.6 | CNC(=O)c1cccc(-c2ccc(S(=O)(=O)[C@H]3CC[C@H](Nc4ccc(S(F)(F)(F)(F)F)cc4)CC3)cc2)c1 [Example 21, N-methyl-4′-{[trans-4-{[4-(pentafluoro-λ^6-sulfanyl)phenyl]Amino}cyclohexyl]sulfonyl}-[1,1′-biphenyl]-3-carboxamide] |
| 100 | 39.8 | CNC(=O)c1ccc(-c2ccc(S(=O)(=O)[C@H]3CC[C@H](Nc4ccc(S(F)(F)(F)(F)F)cc4)CC3)cc2)cn1 [Example 22, N-methyl-5-(4-{[trans-4-{[4-(pentafluoro-λ^6-sulfanyl)phenyl]Amino}cyclohexyl]sulfonyl}phenyl)pyridine-2-carboxamide] |
| 50.1 | 50.1 | NC(=O)c1cccc(-c2ccc(S(=O)(=O)[C@H]3CC[C@H](Nc4ccc(S(F)(F)(F)(F)F)cc4)CC3)cc2)c1 [Example 23, 4′-{[trans-4-{[4-(pentafluoro-λ^6-sulfanyl)phenyl]Amino}cyclohexyl]sulfonyl}-[1,1′-biphenyl]-3-carboxamide] |
| 501 | 200 | O=S(=O)(c1ccc(-c2cn3ccnc3cn2)cc1)N1CCC(Nc2ccc(S(F)(F)(F)(F)F)cc2)CC1 [Example 24, 1-(4-{imidazo[1,2-a]pyrazin-6-yl}benzenesulfonyl)-N-[4-(pentafluoro-λ^6-sulfanyl)phenyl]piperidin-4-amine] |
| 5.01 | 31.6 | CC(C)c1nnc2ccc(-c3ccc(S(=O)(=O)N4CCC(Nc5ccc(S(F)(F)(F)(F)F)cc5)CC4)cc3)cn12 [Example 28, N-[4-(pentafluoro-λ^6-sulfanyl)phenyl]-1-{4-[3-(propan-2-yl)-[1,2,4]triazolo[4,3-a]pyridin-6-yl]benzenesulfonyl}piperidin-4-amine] |
| 50.1 | 39.8 | CC(C)c1cnc2ccc(-c3ccc(S(=O)(=O)N4CCC(Nc5ccc(S(F)(F)(F)(F)F)cc5)CC4)cc3)cn12 [Example 29, N-[4-(pentafluoro-λ^6-sulfanyl)phenyl]-1-{4-[3-(propan-2-yl)imidazo[1,2-a]pyridin-6-yl]benzenesulfonyl}piperidin-4-amine] |
| 251 | 50.1 | COCc1nnc2ccc(-c3ccc(S(=O)(=O)N4CCC(Nc5ccc(S(F)(F)(F)(F)F)cc5)CC4)cc3)cn12 [Example 30, 1-{4-[3-(methoxymethyl)-[1,2,4]triazolo[4,3-a]pyridin-6-yl]benzenesulfonyl}-N-[4-(pentafluoro-λ^6-sulfanyl)phenyl]piperidin-4-amine] |
| 7.94 | 63.1 | N#Cc1cnc2ccc(-c3ccc(S(=O)(=O)[C@H]4CC[C@H](Nc5ccc(S(F)(F)(F)(F)F)cc5)CC4)cc3)cn12 [Example 33, 6-(4-{[trans-4-{[4-(pentafluoro-λ^6-sulfanyl)phenyl]Amino}cyclohexyl]sulfonyl}phenyl)imidazo[1,2-a]pyridine-3-carbonitrile] |
| 1580 | 126 | O=S(=O)(c1ccc(-c2ccc3nncn3c2)cc1)[C@H]1CC[C@H](Nc2ccc(S(F)(F)(F)(F)F)cc2)CC1 [Example 36, 4-(pentafluoro-λ^6-sulfanyl)-N-[trans-4-(4-{[1,2,4]triazolo[4,3-a]pyridin-6-yl}benzenesulfonyl)cyclohexyl]aniline] |
| 3.98 | 63.1 | NC(=O)c1n[nH]c2ccc(-c3ccc(S(=O)(=O)[C@H]4CC[C@H](Nc5ccc(S(F)(F)(F)(F)F)cc5)CC4)cc3)cc12 [Example 37, 5-(4-{[trans-4-{[4-(pentafluoro-λ^6-sulfanyl)phenyl]Amino}cyclohexyl]sulfonyl}phenyl)-1H-indazole-3-carboxamide] |
| 79.4 | 251 | NC(=O)c1nnc2ccc(-c3ccc(S(=O)(=O)[C@H]4CC[C@H](Nc5ccc(S(F)(F)(F)(F)F)cc5)CC4)cc3)cn12 [Example 39, 6-(4-{[trans-4-{[4-(pentafluoro-λ^6-sulfanyl)phenyl]Amino}cyclohexyl]sulfonyl}phenyl)-[1,2,4]triazolo[4,3-a]pyridine-3-carboxamide] |
| 15.8 | 251 | N#Cc1nnc2ccc(-c3ccc(S(=O)(=O)[C@H]4CC[C@H](Nc5ccc(S(F)(F)(F)(F)F)cc5)CC4)cc3)cn12 [Example 42, 6-(4-{[trans-4-{[4-(pentafluoro-λ^6-sulfanyl)phenyl]Amino}cyclohexyl]sulfonyl}phenyl)-[1,2,4]triazolo[4,3-a]pyridine-3-carbonitrile] |
| 316 | 158 | Cc1cn2cc(-c3ccc(S(=O)(=O)[C@H]4CC[C@H](Nc5ccc(S(F)(F)(F)(F)F)cc5)CC4)cc3)ncc2n1 [Example 43, 4-(pentafluoro-λ^6-sulfanyl)-N-[trans-4-(4-{2-methylimidazo[1,2-a]pyrazin-6-yl}benzenesulfonyl)cyclohexyl]aniline] |
| 158 | 158 | O=S(=O)(c1ccc(-c2cn3ccnc3cn2)cc1)[C@H]1CC[C@H](Nc2ccc(S(F)(F)(F)(F)F)cc2)CC1 [Example 44, 4-(pentafluoro-λ^6-sulfanyl)-N-[trans-4-(4-{imidazo[1,2-a]pyrazin-6-yl}benzenesulfonyl)cyclohexyl]aniline] |
| 794 | 63.1 | CNC(=O)c1ccc(-c2ccc(S(=O)(=O)[C@H]3CC[C@H](Nc4ccc(S(F)(F)(F)(F)F)cc4)CC3)cc2)nc1 [Example 47, N-methyl-6-(4-{[trans-4-{[4-(pentafluoro-λ^6-sulfanyl)phenyl]Amino}cyclohexyl]sulfonyl}phenyl)pyridine-3-carboxamide] |
| 39.8 | 39.8 | CNC(=O)c1cc(-c2ccc(S(=O)(=O)[C@H]3CC[C@H](Nc4ccc(S(F)(F)(F)(F)F)cc4)CC3)cc2)ccn1 [Example 48, N-methyl-4-(4-{[trans-4-{[4-(pentafluoro-λ^6-sulfanyl)phenyl]Amino}cyclohexyl]sulfonyl}phenyl)pyridine-2-carboxamide] |
| 501 | 79.4 | NC(=O)c1ccc(-c2ccc(S(=O)(=O)[C@H]3CC[C@H](Nc4ccc(S(F)(F)(F)(F)F)cc4)CC3)cc2)nc1 [Example 49, 6-(4-{[trans-4-{[4-(pentafluoro-λ^6-sulfanyl)phenyl]Amino}cyclohexyl]sulfonyl}phenyl)pyridine-3-carboxamide] |
| 15.8 | 200 | O=C1NCc2cc(-c3ccc(S(=O)(=O)[C@H]4CC[C@H](Nc5ccc(S(F)(F)(F)(F)F)cc5)CC4)cc3)ccc21 [Example 58, 5-(4-{[trans-4-{[4-(pentafluoro-λ^6-sulfanyl)phenyl]Amino}cyclohexyl]sulfonyl}phenyl)-2,3-dihydro-1H-isoindol-1-one] |
| 15.8 | 158 | O=C1Cc2ccc(-c3ccc(S(=O)(=O)[C@H]4CC[C@H](Nc5ccc(S(F)(F)(F)(F)F)cc5)CC4)cc3)cc2N1 [Example 59, 6-(4-{[trans-4-{[4-(pentafluoro-λ^6-sulfanyl)phenyl]Amino}cyclohexyl]sulfonyl}phenyl)-2,3-dihydro-1H-indol-2-one] |
| 7.94 | 158 | O=C1NCCc2ccc(-c3ccc(S(=O)(=O)[C@H]4CC[C@H](Nc5ccc(S(F)(F)(F)(F)F)cc5)CC4)cc3)cc21 [Example 60, 7-(4-{[trans-4-{[4-(pentafluoro-λ^6-sulfanyl)phenyl]Amino}cyclohexyl]sulfonyl}phenyl)-1,2,3,4-tetrahydroisoquinolin-1-one] |
| 31.6 | 126 | O=C1NCCc2cc(-c3ccc(S(=O)(=O)[C@H]4CC[C@H](Nc5ccc(S(F)(F)(F)(F)F)cc5)CC4)cc3)ccc21 [Example 61, 6-(4-{[trans-4-{[4-(pentafluoro-λ^6-sulfanyl)phenyl]Amino}cyclohexyl]sulfonyl}phenyl)-1,2,3,4-tetrahydroisoquinolin-1-one] |
